Several values for one entry are separate records, joined by “and”; a condition that tells them apart may be missing. Equal values may be shown once. Toxic doses and inconclusive results are not listed. Rule as the data show it: active = T/C of 150% or more; inactive = T/C below 125%. Peptide text beside a SMILES is read from it. * marks the point of attachment. Cbz = O=C(OCc1ccccc1)*; Bn = c1ccc(C*)cc1
Test system: L1210 leukemia ip in BDF1 mice, survival T/C
Experiment: NCI In Vivo Anticancer Drug Screen. Data for tumor model L1210 Leukemia (intraperitoneal) in B6D2F1 (BDF1) mice
Settings: endpoint: mean survival time, higher = longer survival
Summary of the method: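 Survival endpoint. Drug-treated group vs vehicle group, expressed as T divided by C. Tumor passaged by transplantation.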

[1] = dose: 100.0 mg/kg/injection, schedule: Q04DX002 (ip), vehicle: saline
[2] = dose: 100.0 mg/kg/injection, schedule: Q04DX003 (ip), vehicle: saline
[3] = dose: 200.0 mg/kg/injection, schedule: Q04DX002 (ip), vehicle: saline
[4] = dose: 200.0 mg/kg/injection, schedule: Q04DX003 (ip), vehicle: saline
[5] = dose: 400.0 mg/kg/injection, schedule: Q04DX002 (ip), vehicle: saline
[6] = dose: 100.0 mg/kg/injection, schedule: Q01DX001 (ip), vehicle: saline
[7] = dose: 200.0 mg/kg/injection, schedule: Q01DX001 (ip), vehicle: saline
[8] = dose: 400.0 mg/kg/injection, schedule: Q01DX001 (ip), vehicle: saline
[9] = dose: 100.0 mg/kg/injection, schedule: Q01DX009 (ip), vehicle: Klucel (hydroxypropylcellulose) (HPC)
[10] = dose: 200.0 mg/kg/injection, schedule: Q01DX009 (ip), vehicle: Klucel (hydroxypropylcellulose) (HPC)

Measured: T/C

COC(=O)C(CC(C)C)NC(=O)C(CSCc1ccccc1)NC(=O)OCc1ccccc1 (configuration not stated) (Cbz-Cys(Bn)-Leu-OMe; configuration not given here)
inactive: dose: 100.0 mg/kg/injection, schedule: Q04DX003 (ip), vehicle: DMSO 102 % of control | dose: 200.0 mg/kg/injection, schedule: Q04DX003 (ip), vehicle: DMSO 104 % of control | dose: 400.0 mg/kg/injection, schedule: Q04DX003 (ip), vehicle: DMSO 96 % of control

C[n+]1ccc(/C(N)=N/O)cc1
inactive: dose: 25.0 mg/kg/injection, schedule: Q01DX009 (ip), vehicle: saline 94 % of control and 106 % of control | dose: 50.0 mg/kg/injection, schedule: Q01DX009 (ip), vehicle: saline 104 % of control and 105 % of control | dose: 100.0 mg/kg/injection, schedule: Q01DX009 (ip), vehicle: saline 101 % of control and 107 % of control | [1] 105 % of control | [2] 101 % of control | [3] 107 % of control | [4] 97 % of control | [5] 96 % of control

CC(=O)c1ccc2cc(O)ccc2c1
inactive: dose: 50.0 mg/kg/injection, schedule: Q04DX003 (ip), vehicle: saline 101 % of control | [6] 97 % of control | [2] 101 % of control | [7] 101 % of control | [4] 103 % of control | [8] 104 % of control

Clc1ccc(C2NC(c3ccc(Cl)cc3)NC(c3ccc(Cl)cc3)N2)cc1 (configuration not stated)
inactive: dose: 75.0 mg/kg/injection, schedule: Q01DX001 (ip), vehicle: saline 95 % of control | dose: 150.0 mg/kg/injection, schedule: Q01DX001 (ip), vehicle: saline 95 % of control | dose: 300.0 mg/kg/injection, schedule: Q01DX001 (ip), vehicle: saline 90 % of control

Cn1c(=O)c2c(ncn2CCSCC2=NS(=O)(=O)c3cc(S(N)(=O)=O)c(C(F)(F)F)cc3N2)n(C)c1=O
inactive: [1] 97 % of control | [3] 94 % of control | [5] 94 % of control

CC(C)CCCCCc1ccc(OCCOc2ccc(C(=O)Nc3ccc(S(=O)(=O)F)cc3[N+](=O)[O-])cc2)cc1
inactive: dose: 100.0 mg/kg/injection, schedule: Q01DX001 (ip), vehicle: Klucel (hydroxypropylcellulose) (HPC) 100 % of control | dose: 200.0 mg/kg/injection, schedule: Q01DX001 (ip), vehicle: Klucel (hydroxypropylcellulose) (HPC) 94 % of control | dose: 400.0 mg/kg/injection, schedule: Q01DX001 (ip), vehicle: Klucel (hydroxypropylcellulose) (HPC) 94 % of control

Cc1c(NC(=O)Nc2ccccc2F)c(=O)n(-c2ccccc2)n1C
inactive: [6] 101 % of control | dose: 100.0 mg/kg/injection, schedule: Q01DX009 (ip), vehicle: acetone 86 % of control | [2] 112 % of control | [7] 95 % of control and 91 % of control | [4] 91 % of control | [8] 97 % of control and 98 % of control | dose: 400.0 mg/kg/injection, schedule: Q04DX003 (ip), vehicle: saline 95 % of control

C[n+]1cccc(C(=O)N/N=C/c2ccccc2)c1
inactive: dose: 100.0 mg/kg/injection, schedule: Q01DX001 (ip), vehicle: saline with Tween-80 96 % of control | dose: 200.0 mg/kg/injection, schedule: Q01DX001 (ip), vehicle: saline with Tween-80 96 % of control | dose: 400.0 mg/kg/injection, schedule: Q01DX001 (ip), vehicle: saline with Tween-80 96 % of control

CC1NC(=O)COC1c1ccccc1 (configuration not stated)
inactive: dose: 25.0 mg/kg/injection, schedule: Q01DX009 (ip), vehicle: Klucel (hydroxypropylcellulose) (HPC) 101 % of control | dose: 50.0 mg/kg/injection, schedule: Q01DX009 (ip), vehicle: Klucel (hydroxypropylcellulose) (HPC) 95 % of control | [9] 101 % of control | [10] 96 % of control

O=NN(CCCl)C(=O)NN1CCCCCC1
inactive: dose: 15.0 mg/kg/injection, schedule: Q01DX001 (ip), vehicle: carboxymethylcellulose (CMC) 101 % of control | dose: 30.0 mg/kg/injection, schedule: Q01DX001 (ip), vehicle: carboxymethylcellulose (CMC) 101 % of control

Cc1n[nH]c(C)c1N=NN1CCOCC1
inactive: dose: 10.0 mg/kg/injection, schedule: Q01DX001 (ip), vehicle: saline 100 % of control and 107 % of control | dose: 20.0 mg/kg/injection, schedule: Q01DX001 (ip), vehicle: saline 107 % of control and 124 % of control | dose: 30.0 mg/kg/injection, schedule: Q01DX001 (ip), vehicle: saline 105 % of control

CC(=O)c1cccc(NC(=O)Oc2ccc(Cl)cc2Cl)c1
inactive: [9] 101 % of control | [10] 110 % of control

Reference: PubChem BioAssay AID248 (DTP/NCI, 2004)
